In patent US20090275539A1, “Nuclear Transcription Factors Regulators” (CTG PHARMA S.R.L., priority 2004, published 2009):

Columns and labels:
heme oxygenase-1 (OH-1) = experiment: Zymosan-induced OH-1 protein expression in Raw 264.7 macrophages (western blot); type: cell-based, murine; details: for OH-1 protein expression, band intensity: zymosan-stimulated Raw 264.7, 18 hrs
Procedure: (§1) For the screening approach it was decided to test the compounds object of the present invention and fulfilling the structural general criteria previously described for heme oxygenase-1 (OH-1) and inducible nitric oxide synthase (iNOS). The enzyme tests were performed as described by Vicente A M et al. (Br. J. Pharmacol. 2001, 133, 920-6). The formation of both these two enzymes was associated with the activation of transcription factors, and NF-kB particularly.
(§2) In brief, Raw 264.7 murine macrophage cell line were maintained in a proper culture medium supplemented with 10% fetal bovine serum, 2 mM L-glutamine and penicillin/streptomycin. Suspensions of zymosan A from Saccharomyces cerevisiae in saline were used. After incubation with zymosan and/or test compounds for 18 hrs, cells supernatants were collected to measure protein expression, by western blot analysis. After incubation, macrophages were lysed in 100 microliters of buffer (1% Triton X-100, 1% deoxicholic acid, 20 mM NaCl and 25 mM Tris, pH 7.4) and then centrifuged at 4° C. for 5 min at 10,000×g. The protein content was determined by the Bradford method using bovine serum albumin as standard. Cell lysate (40 micrograms of protein) was mixed with Laemmli sample buffer under reducing conditions. […] Membranes were incubated with specific antibodies: polyclonal antibody against iNOS (1/1000, Cayman Chemical) and anti-OH-1 monoclonal antibody (1/2000, Stressgen). Blots were washed and incubated with peroxidase-conjugated goat IgG (1/20,000). The immunoreactive bands were visualized by an enhanced chemiluminescence system and band intensity quantitated using computer-assisted densitometry.

[1] = test system: inducible nitric oxide synthase (iNOS); experiment: Zymosan-induced iNOS protein expression in Raw 264.7 macrophages (western blot); type: cell-based, murine; details: for INOS protein expression, band intensity: zymosan-stimulated Raw 264.7, 18 hrs
Procedure: as §1, §2

NF-kB = experiment: NF-kB-CAT reporter gene assay (CAT activity); type: cell-based; details: test compound 100 μm; for NF-kB activity: % of CAT synthesis, TNF-stimulated: human TNF alpha 100 ng/ml
Procedure: The NF-kB-CAT reporter gene cell line (Lenardo M J et al., Cell 58, 227-9, 1989) and. L29/Ji6 cells (Fratelli M et al, Antioxidants & Redox Signalling 5, 229-235, 2003) were prepared as previously described. Human TNF alpha (100 ng/ml) was used. The chloramphenicol-acetyltransferase (CAT) activity was measured by adding 40 microliters of Tris-HCl buffer (250 mM, ph 7.5) and D-threo-[dichloroacetyl]1,2 ^14C chloramphenicol (10 microliters, 8.3×10^−2 mCi/sample) The reaction was started by the addition of n-butyryl coenzyme A. After 2 h at 37° C., the reaction was stopped by extraction with hexane/xylene (2:1). The upper organic phase containing the reaction product was then recovered, and radioactivity was counted on a beta-counter. The activity on NF-kB was expressed as […].

IL-8 = experiment: Expression of NF-kB regulated cytokine IL-8 in HeLa cells (ELISA); type: cell-based; details: for IL-8 concentration in cell supernatant: 120′; for Inhibition of the production of IL-8: after 120 minutes
Procedure: (§3) The cells were stimulated with 100 μmol of compound described in example 6 with TNF (200 E/ml) or with PMA (50 ng/ml) and the concentration of IL-6 or IL-8 was measured in the cell supernatant at various interval using ELISA (British Biotechnology Products Ltd.).

IL-6 = experiment: Expression of NF-kB regulated cytokine IL-6 in HeLa cells (ELISA); type: cell-based; details: for Inhibition of the production of IL-6: after 120 minutes
Procedure: as §3

[2] = zymosan-stimulated Raw 264.7, summary of table I

**Q.** Which “OH-1 protein expression, band intensity” value (heme oxygenase-1 (OH-1); concentration 100 μmol) does the source give for `CC(=O)N[C@@H](CS)C(=O)O` [N-acetylcysteine] here?
**A.** The value was 44 percentage with respect to zymosan.

**Q.** And the “INOS protein expression, band intensity” value ([1]; concentration 100 μmol)?
**A.** Its value is 80 percentage with respect to zymosan.

**Q.** Which results are given for `CC(=O)Oc1ccccc1C(=O)O` [Aspirin, reference compound]?
**A.** NF-kB activity: % of CAT synthesis, Basal (NF-kB): 100%; NF-kB activity: % of CAT synthesis, TNF-stimulated (NF-kB): 92%

**Q.** For `CS(=O)(=O)Nc1ccc([N+](=O)[O-])cc1OC1CCCCC1` [NS398], which “OH-1 protein expression, band intensity” value (heme oxygenase-1 (OH-1); concentration 10 μmol) is on record?
**A.** Its value is 72 percentage with respect to zymosan.

**Q.** What about the “INOS protein expression, band intensity” value ([1]; concentration 10 μmol) of the same compound?
**A.** The value was 120 percentage with respect to zymosan.

**Q.** `C[C@@H]1C[C@H]2[C@@H]3CCC4=CC(=O)C=C[C@]4(C)[C@@]3(F)[C@@H](O)C[C@]2(C)[C@@]1(O)C(=O)CO` [Dexamethasone, dexamethasone] was tested. Which “OH-1 protein expression, band intensity” value (heme oxygenase-1 (OH-1); concentration 1 μmol) did it give?
**A.** The value was 20 percentage with respect to zymosan.

**Q.** What about the “INOS protein expression, band intensity” value ([1]; concentration 1 μmol) of the same compound?
**A.** The value was 85 percentage with respect to zymosan.

**Q.** `CC(c1cc2ccccc2s1)N(O)C(N)=O` (stereo not shown) [Zileuton, zileuton] was tested. Which “OH-1 protein expression, band intensity” value (heme oxygenase-1 (OH-1); concentration 10 μmol) did it give?
**A.** The value was 125 percentage with respect to zymosan.

**Q.** What about the “INOS protein expression, band intensity” value ([1]; concentration 10 μmol) of the same compound?
**A.** Its value is 112 percentage with respect to zymosan.

**Q.** Which “NF-kB activity: % of CAT synthesis, Basal” value (NF-kB) does the source give for `CC(=O)Sc1ccccc1C(=O)Oc1ccc(CO[N+](=O)[O-])cc1` [ATANPE, acetyl thiosalicylic acid 4-(nitroxymethyl)phenyl ester] here?
**A.** The value was 31%.

**Q.** What about the “NF-kB activity: % of CAT synthesis, TNF-stimulated” value (NF-kB) of the same compound?
**A.** Its value is 26%.

**Q.** And the “IL-8 concentration in cell supernatant” value (IL-8; PMA (50 ng/ml) + 100 μmol compound)?
**A.** Its value is 12 pg/mL.

**Q.** What about the “IL-8 concentration in cell supernatant” value (IL-8; TNF (200 E/ml) + 100 μmol compound) of the same compound?
**A.** Its value is 6 pg/mL.

**Q.** What about the “Inhibition of the production of IL-8” value (IL-8; first of two values printed with '(PMA stimulation)') of the same compound?
**A.** Its value is 90%.

**Q.** And the “Inhibition of the production of IL-8” value (IL-8; second of two values printed with '(PMA stimulation)')?
**A.** Its value is 97%.

**Q.** And the “OH-1 protein expression, band intensity” value (heme oxygenase-1 (OH-1); concentration 10 μmol)?
**A.** Its value is 293 percentage with respect to zymosan.

**Q.** And the “Effect on OH-1 production (in words)” value (heme oxygenase-1 (OH-1); [2])?
**A.** Its value is “stimulate OH-1 production”.

**Q.** And the “IL-6 concentration in cell supernatant” value (IL-6; PMA (50 ng/ml) + 100 μmol compound, 15′)?
**A.** The value was 920 pg/mL.

**Q.** What about the “IL-6 concentration in cell supernatant” value (IL-6; PMA (50 ng/ml) + 100 μmol compound, 120′) of the same compound?
**A.** The value was 3138 pg/mL.

**Q.** And the “IL-6 concentration in cell supernatant” value (IL-6; TNF (200 E/ml) + 100 μmol compound, 15′)?
**A.** Its value is 945 pg/mL.

**Q.** What about the “IL-6 concentration in cell supernatant” value (IL-6; TNF (200 E/ml) + 100 μmol compound, 120′) of the same compound?
**A.** The value was 1738 pg/mL.

**Q.** What about the “Inhibition of the production of IL-6” value (IL-6; first of two values printed with '(TNF stimulation)') of the same compound?
**A.** The value was 87%.

**Q.** And the “Inhibition of the production of IL-6” value (IL-6; second of two values printed with '(TNF stimulation)')?
**A.** Its value is 74%.

**Q.** And the “INOS protein expression, band intensity” value ([1]; concentration 10 μmol)?
**A.** Its value is 48 percentage with respect to zymosan.

**Q.** And the “Effect on iNOS formation (in words)” value [1, 2]?
**A.** The value was “inhibit iNOS formation”.

**Q.** `COc1ccc2c(c1)c(CC(=O)O)c(C)n2C(=O)c1ccc(Cl)cc1` [Indomethacin, indomethacin] was tested. Which “OH-1 protein expression, band intensity” value (heme oxygenase-1 (OH-1); concentration 1 μmol) did it give?
**A.** The value was 65 percentage with respect to zymosan.

**Q.** What about the “INOS protein expression, band intensity” value ([1]; concentration 1 μmol) of the same compound?
**A.** The value was 78 percentage with respect to zymosan.
